Measured values taken from patent US7410974B2, “Halogenated Quinazolinyl nitrofurans as antibacterial agents” (Ulysses Pharmaceutical Products, Inc., priority 2003, dated 2008).
Converted amounts (≈) assume the structure as drawn. Read-outs that look alike come from different tables or passages of the source.

Legend:
[1] = tested on: S. aureus ATCC 29213; experiment: MIC broth microdilution (NCCLS); type: cell-based, Staphylococcus aureus; settings: Staphylococcus aureus, ATCC29213; S. aureus ATCC 29213; read-out: MIC
[2] = tested on: S. aureus MRSA COL; experiment: MIC broth microdilution (NCCLS); type: cell-based, Staphylococcus aureus; settings: S. aureus MRSA COL
Summary of the method: (§1)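 Inocula of 10^5-10^6 CFU/ml were checked by colony counts, and out-of-range runs were rejected. Test compounds underwent serial 2-fold dilution in cation-adjusted Mueller Hinton broth and were incubated for 24 h at 35° C. The MIC was the lowest concentration without visible growth.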

[3] = tested on: S. saprophyticus ATCC 15305; experiment: MIC broth microdilution (NCCLS); type: cell-based, Staphylococcus saprophyticus; settings: Staphylococcus saprophyticus, ATCC15305; S. saprophyticus ATCC 15305; read-out: MIC
Summary of the method: (§2)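 NCCLS broth microdilution; inoculum 10^5-10^6 CFU/ml; 2-fold serial dilutions; 35° C, 24 h; A650 plus visual read. Media: MHBCA (S. saprophyticus, E. faecium), MHBCA + 2% laked horse blood (Listeria), HTM (Haemophilus), the last two under 5% CO2.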

[4] = tested on: E. faecium ATCC 35667; experiment: MIC broth microdilution (NCCLS); type: cell-based, Enterococcus faecium; settings: Enterococcus faecium, ATCC35667, E. faecium ATCC 35667; read-out: MIC
Summary of the method: as §2

[5] = tested on: M. smegmatis ATCC 19420; experiment: MIC broth microdilution (NCCLS), fastidious bacteria; type: cell-based, Mycobacterium smegmatis; settings: Mycolicibacterium smegmatis, ATCC19420, read after 48 hours
[6] = tested on: MRSA strain Sa211c; experiment: MIC broth microdilution, antibiotic resistant strain panel; type: cell-based, Staphylococcus aureus; settings: Staphylococcus aureus; multi-resistant MRSA strain Sa211c; read-out: MIC
Summary of the method: as §1

[7] = tested on: MRSA strain Sa212c; experiment: as above; type: cell-based, Staphylococcus aureus; settings: Staphylococcus aureus; multi-resistant MRSA strain Sa212c; read-out: MIC
Summary of the method: as §1

[8] = tested on: MRSA strain Sa220c; experiment: as above; type: cell-based, Staphylococcus aureus; settings: Staphylococcus aureus; multi-resistant MRSA strain Sa220c; read-out: MIC
Summary of the method: as §1

[9] = tested on: MRSA strain Sa224c; experiment: as above; type: cell-based, Staphylococcus aureus; settings: Staphylococcus aureus; multi-resistant MRSA strain Sa224c; read-out: MIC
Summary of the method: as §1

[10] = tested on: MRSA strain Sa234c; experiment: as above; type: cell-based, Staphylococcus aureus; settings: Staphylococcus aureus; multi-resistant MRSA strain Sa234c; read-out: MIC
Summary of the method: as §1

[11] = tested on: MRSA strain Sa248c; experiment: as above; type: cell-based, Staphylococcus aureus; settings: Staphylococcus aureus; multi-resistant MRSA strain Sa248c; read-out: MIC
Summary of the method: as §1

[12] = tested on: MRSA strain Sa249c; experiment: as above; type: cell-based, Staphylococcus aureus; settings: Staphylococcus aureus; multi-resistant MRSA strain Sa249c; read-out: MIC
Summary of the method: as §1

[13] = tested on: E. coli ATCC 35150 (O157:H7); experiment: MIC broth microdilution, E. coli strains; type: cell-based; settings: Escherichia coli, ATCC35150
Procedure: (§3) Minimal Inhibitory Concentration (MIC) Determination. Bacteria (primary strain panel, TABLE 1). Susceptibility tests were performed following the recommendations from the National Committee for Clinical Standards (NCCLS). The MICs were determined by a broth microdilution technique using a final volume of 100 μl of cation-adjusted Mueller Hinton Broth (MHBCA) and a bacterial inoculum of 10^5-10^6 Colony Forming Units (CFU)/ml. The inocula were verified and precisely determined by applying 10-μl drops of 10-fold dilutions onto Triptic Soy Agar plates. The CFU were counted after an incubation of 24 h at 35° C. Any experiment showing an inoculum that was more or less than 10^5-10^6 CFU/ml was rejected. Control antibiotics and test compounds were prepared at a concentration equivalent to 2-fold the highest desired final concentration. Compounds were then diluted directly in the 96-well microtiter plates by serial 2-fold dilutions using a multichannel pipette. Microtiter plates were incubated during 24 h at 35° C. and growth was recorded by using a microtiterplate reader at 650 nm as well as by visual observation. The MIC was defined as the lowest concentration of compound yielding no visible growth. […] Fastidious bacteria. The medium used for Listeria monocytogenes, Neisseria meningitidis, and Campylobacter jejuni was MHBCA containing 2% laked horse blood. The medium used for Haemophilus influenzae and Branhamella (Moraxella) catarrhalis was HTM as recommended by the NCCLS. Cultures of these fastidious bacteria were incubated at 35° C. in a 5% CO2 atmosphere. […] The medium used for Bacteroides fragilis was Wilkins Chalgren broth and growth was allowed under an anaerobic atmosphere at 35° C. for 48 hours.
(§4) Finally, compounds were also tested against populations of various clinical strains (antibiotic resistant strain panel, TABLE 1).

[14] = tested on: E. coli Ec022c (EIEC); experiment: MIC broth microdilution, E. coli strains; type: cell-based; settings: Escherichia coli, pathotype EIEC
Procedure: as §3, §4

[15] = tested on: E. coli Ec027c (EIEC); experiment: MIC broth microdilution, E. coli strains; type: cell-based; settings: Escherichia coli, pathotype EIEC
Procedure: as §3, §4

[16] = tested on: E. coli Ec117c (EIEC); experiment: MIC broth microdilution, E. coli strains; type: cell-based; settings: Escherichia coli, pathotype EIEC
Procedure: as §3, §4

[17] = tested on: E. coli Ec118c (EIEC); experiment: MIC broth microdilution, E. coli strains; type: cell-based; settings: Escherichia coli, pathotype EIEC
Procedure: as §3, §4

[18] = tested on: E. coli Ec119c (EIEC); experiment: MIC broth microdilution, E. coli strains; type: cell-based; settings: Escherichia coli, pathotype EIEC
Procedure: as §3, §4

[19] = tested on: E. coli d25-ALR-pen14 (O157:H7); experiment: MIC broth microdilution, E. coli strains; type: cell-based; settings: Escherichia coli
Procedure: as §3, §4

[20] = tested on: E. coli d4-OLR-pen10 (O157:H7); experiment: MIC broth microdilution, E. coli strains; type: cell-based; settings: Escherichia coli
Procedure: as §3, §4

[21] = Staphylococcus aureus, MRSA, read-out: MIC

Row | Structure (SMILES) | MIC [1] | MIC [2, 21] | MIC [3] | MIC [4] | MIC [5] | MIC [6] | MIC [7] | MIC [8] | MIC [9] | MIC [10] | MIC [11] | MIC [12] | MIC [13] | MIC [14] | MIC [15] | MIC [16] | MIC [17] | MIC [18] | MIC [19] | MIC [20] | further results
1 | O=[N+]([O-])c1ccc(C=Cc2nc(Nc3ccc(O)cc3)c3cc(F)ccc3n2)o1 [Compound V, 6-fluoro-2-[2-(5-nitro-2-furyl)vinyl]-4-(p-hydroxyanilino)-quinazoline] | 0.03 to 0.06 µg/mL (≈ 0.0765 to 0.153 µM) | 0.015 µg/mL (≈ 0.0382 µM) | 0.015 to 0.03 µg/mL (≈ 0.0382 to 0.0765 µM) | 0.06 µg/mL (≈ 0.153 µM) | 0.06 µg/mL (≈ 0.153 µM) | ≤ 0.06 µg/mL | 0.125 µg/mL (≈ 0.319 µM) | ≤ 0.06 µg/mL | ≤ 0.06 µg/mL | ≤ 0.06 µg/mL | ≤ 0.06 µg/mL | ≤ 0.06 µg/mL | 1 µg/mL (≈ 2.55 µM) | 1 µg/mL (≈ 2.55 µM) | 1 µg/mL (≈ 2.55 µM) | 1 µg/mL (≈ 2.55 µM) | 1 µg/mL (≈ 2.55 µM) | 2 µg/mL (≈ 5.1 µM) | 1 µg/mL (≈ 2.55 µM) | 1 µg/mL (≈ 2.55 µM) | –
2 | O=C1CN(/N=C/c2ccc([N+](=O)[O-])o2)C(=O)N1 [Nitrofurantoin] | 16 µg/mL (≈ 67.2 µM) | 16 µg/mL (≈ 67.2 µM) | 8 µg/mL (≈ 33.6 µM) | 64 µg/mL (≈ 269 µM) | 64 µg/mL (≈ 269 µM) | 16 to 32 µg/mL (≈ 67.2 to 134 µM) | 32 µg/mL (≈ 134 µM) | 16 µg/mL (≈ 67.2 µM) | 16 µg/mL (≈ 67.2 µM) | 16 to 32 µg/mL (≈ 67.2 to 134 µM) | 16 µg/mL (≈ 67.2 µM) | 16 µg/mL (≈ 67.2 µM) | 2 µg/mL (≈ 8.4 µM) | 16 µg/mL (≈ 67.2 µM) | 16 µg/mL (≈ 67.2 µM) | 8 to 16 µg/mL (≈ 33.6 to 67.2 µM) | 16 µg/mL (≈ 67.2 µM) | 16 µg/mL (≈ 67.2 µM) | 16 µg/mL (≈ 67.2 µM) | 16 µg/mL (≈ 67.2 µM) | MIC [2]: 8 to 16 µg/mL
